Data set [1] relates to mTOR signaling (p-S6). The data set can be described thus: p-S6 western blotting in FOP-iMSCs cultured with 10% FBS. Format: cell-based, human. The note with it: 100 nM, 2 hr. As for the experimental part:
time point t = 24 h from t = 0 h, and relative cell migration was expressed as the ratio of the absolute cell migrations between the experimental and control groups by using CL-Quant software (Nikon Corp.).
Quantitative PCR analysis. Total RNA was purified with RNeasy Kit (Qiagen) and treated with DNase -one Kit (Qiagen) to remove genomic DNA. Total RNA (0.3 µg) was reverse transcribed for single-stranded cDNA using random primers and Superscript III reverse transcriptase (Thermo Fisher Scientific) according to the manufacturer’s instructions. Quantitative PCR was performed with Thunderbird SYBR qPCR Mix (TOYOBO) and analyzed with the StepOne real-time PCR system (Applied Biosystems). […]
Microarray experiments. 2D chondrogenic induction was performed in FOP-iMSCs stimulated with or without 100 ng/mL Activin-A, TAK 165, CP-724714 and Lapatinib. […] Raw CEL files were imported into GeneSpring GX 12.6.1 software (Agilent Technologies), and expression values were calculated with the RMA16 algorithm. […]
Protein bands were detected with ECL Prime Western Blotting Detection Reagent (GE Healthcare) and visualized using BIO-RAD Molecular Imager® Chemi-DocTM XRS+ with Image LabTM software (Bio-Rad). […]
GAG value. The GAG content was quantified in pellets with the Blyscan Glycosaminoglycan Assay Kit (Biocolor). The DNA content was quantified using PicoGreen dsDNA Quantitation Kit (Thermo Fisher […]
Background: A western blot detects proteins with antibodies after separation by electrophoresis.

Data set [2] deals with healthy control iPSC (414C2)-derived iMSCs. In words: Wound healing assay.
The test system of data set [3] is BMP signaling (BRE-Luc). The data set can be described thus: BRE-Luc reporter assay in FOP-iMSCs. Format: cell-based, human. The note with it: activin A and compounds for 16 hr. As to the method:
FOP-iMSCs transiently transfected with BRE-Luc (A) or CAGA-Luc (B) with CMV-Renilla were stimulated with activin A and compounds for 16 hr (A) or 3 hr (B). […] One day after siRNA transfection, chondrogenic induction with activin A was initiated, and after 7 days the cells were harvested. […] FOP-iMSCs cultured with 10% FBS were treated with 100 nM rapamycin (Rapa) or TAK 165 (TAK) for 2 hr, and the cells were harvested. […] 1 μM TAK, 1 μM CP (CP-724714, another selective ERBB2 inhibitor), or 10 nM Rapa were applied in the experiments.
Background: A reporter such as luciferase makes a cellular process visible.

In the case of `FC(F)(F)c1ccc(/C=C/c2nc(COc3ccc(CCCCn4ccnn4)cc3)co2)cc1` [TAK 165, mubritinib], the “p-S6 levels (direct mTOR inhibition)” value in data set [1] is “did not”. The “Relative cell migration (wound healing assay) vs DMSO” value in data set [2] (10 nM rapamycin or 1 µM TAK165, 24 h) is given as “n.s”. Besides, the “wound healing in vitro” value in data set [2] (1 µM, 24 h) was “did not impair”. For the same compound, the “BRE-Luc (BMP-specific luciferase reporter)” value in data set [3] is listed as “did not affect”.

The values above are taken from publication PMC6235670, “An mTOR Signaling Modulator Suppressed Heterotopic Ossification of Fibrodysplasia Ossificans Progressiva” (Stem Cell Reports, 2018).
